Laboratory results published in patent US20080064027A1, “TEL/Etv6-mediated inhibition of cell proliferation” (priority 2002, published 2008).
Entries after “also recorded” stand apart in the source; their conditions may differ.

Tests used:
[1] = test system: Stat3 transcriptional activity; assay: Stat3 luciferase reporter assay with transfected TEL or TEL mutants; type: cell-based
Procedure: In brief, TEL- or control, pcDNA3.1-transfected Stat3ERA375 cells, treated with 4HT were cultured in the presence or absence of Trichostatin A (TSA; 250 nM), a general HDAC inhibitor, essentially as described above.
Briefly, Stat3-ER-A375 cells and HEK 293 cells were transfected with the different TEL mutants, a Stat3 reporter plasmid and a Renilla plasmid.

[2] = test system: Stat3-ER-expressing A375 cells; assay: Cell proliferation after siRNA transfection; type: cell-based
Source text: This Example follows cell proliferation of Stat3-ER-expressing A375 cells treated with 4HT or a combination of 4HT and OSM, then cell proliferation in the absence or in the presence of siRNA to C/EBPd.
The following 21-mer oligoribonucleotide pairs were used:
This Example follows cell proliferation of Stat3-ER-expressing A375 cells treated with 4HT or a combination of 4HT and OSM, and in the absence or in the presence of siRNA to TEL.

C/EBPdelta mRNA = assay: C/EBPdelta expression (quantitative PCR); type: cell-based
Procedure: A LacZ siRNA was used as control. The designed RNA oligonucleotides were ‘blasted’ against the GENBANK/EMBL databank to ensure gene specificity. The RNA oligonucleotides were obtained commercially. Transfection with expression vectors was carried out 1 day after the siRNA transfection using Effectene.

TEL [3] = assay: TEL protein level by Western blotting; type: cell-based; conditions: 4HT or 4HT/OSM treated; relative to control LacZ siRNA
Procedure: Protein analysis was carried out by Western blotting. In brief, cells were harvested in NP40 extraction buffer (50 mM Tris (pH 7.5), 1 mM EGTA, 5 mM EDTA, 120 mM NaCl, 1% NP40, 2 mM sodium orthovanadate, 50 mM sodium fluoride, 20 mM ? -glycerophosphate, 10 μg/ml leupeptin, 10 μg/ml aprotinin, and 0.5 mM phenylmethylsulfonyl fluoride) for 5 min on ice. The lysates were clarified by centrifugation and protein concentrations were determined using the Bio-Rad protein assay reagent (Bio-Rad Laboratories Gmbh, Munich, Germany). For immunoprecipitaton, equal amounts of proteins were incubated with Stat3 (C-20) from Santa Cruz Biotechnology (Santa Cruz, Calif.) for 1 hr. Following SDS-polyacrylamide gel eletrophoresis (SDS-PAGE), proteins were blotted onto polyvinylidene difluoride membranes (Boehringer Mannheim, Mannheim, Germany). After blocking with 10% horse serum (Life Technologies, Inc.) in 50 mM Tris pH 7.5, 150 mM NaCl, 0.05% Tween 20, filters were probed with specific antibodies; c-TEL, Stat3 (C-20) from Santa Cruz Biotechnology (Santa Cruz, Calif.), phospho-Stat3 (Tyr 705) from Cell Signaling Technology (Beverly, Mass.). Proteins were visualized with peroxidase-coupled secondary antibodies using the enhanced chemiluminescence detection system (Amersham Pharmacia Biotech, Little Chalfont, United Kingdom).

[4] = test system: Stat3 transcriptional activity; assay: APRE-driven luciferase reporter assay; type: cell-based; conditions: for Stat3-dependent transcription of luciferase, increase over control: TEL expression reduced by siRNA
Source text: Luciferase assays are used to verify that the Stat3-ER construct is transcriptionally active. For this purpose, a luciferase reporter gene driven by the acute-phase response element (APRE) of the alpha 2-macroglobulin gene, a target for Stat1 and Stat3, was used.
Cells (2×10^6 cells/6 well dish) were transfected with a reporter plasmid containing four copies of acute phase responsible element (APRE) upstream of the minimal junB promoter linked to the luciferase gene (T Hirano, EMBO Journal, 1996, 15, 3651-3658), together with the internal control plasmid pRL-SV40 from Promega (Madison, Wis.). Twenty-four hours after the transfection, cells were either left unstimulated or stimulated with OSM (PeproTechEC, London, United Kingdom), 4-hydroxytamoxifen (4HT; Sigma, St. Louis, Mo.) or a combination of 4HT/OSM for 24 hours. The preparation of cell extracts and measurement of luciferase activities were carried out using the Dual-Luciferase reporter assay system from Promega (Madison, Wis.) in an Autolumat LB 953 (Berthold Technologies, Wildbad, Germany). Changes in firefly luciferase activity were expressed relative to Renilla luciferase activity in the same sample.

[5] = molecular target: Signal transducer and activator of transcription 3 (Stat3) (UniProt P40763); assay: cell-based or functional assay
Stat3 = assay: TEL-Stat3 interaction, immunoprecipitation from nuclear extracts; type: binding
Procedure: Since the TEL DNA-binding domain is not required for repression of Stat3 activity, this Example tests the possibility that TEL interacts directly with Stat3. Extracts from nuclear-enriched fractions were prepared from control or OSM-stimulated A375 cells. […] Endogenous TEL was present in Stat3 immunoprecipitates and the levels of TEL associating with Stat3 increased in OSM-treated compared to control-treated nuclear extracts. Conversely, Stat3 is present in a TEL-containing complex, pulled down through an immobilized GGM-containing oligonucleotide, which is a binding site for TEL.

TEL [6] = assay: TEL expression in human cancer cell lines; type: cell-based
Source text: TEL is usually expressed as two protein isoforms corresponding to initiation of TEL mRNA translation at ATG codon 1 and 43 (TEL and TEL43). […] To ascertain if TEL is a natural target of Stat3, we examined its expression in human cancer cell lines in response to OSM or IL-6. […] However, TEL expression was unchanged in other cell lines, including the prostate cancer cells PC3 and LNCaP and MDA-MB-468 breast cancer cells, even though it was expected that Stat3 is activated in each of these cell lines by IL-6/OSM treatment.

Signal transducer and activator of transcription 3 (Stat3), sequence (P40763 2-770 limits assumed): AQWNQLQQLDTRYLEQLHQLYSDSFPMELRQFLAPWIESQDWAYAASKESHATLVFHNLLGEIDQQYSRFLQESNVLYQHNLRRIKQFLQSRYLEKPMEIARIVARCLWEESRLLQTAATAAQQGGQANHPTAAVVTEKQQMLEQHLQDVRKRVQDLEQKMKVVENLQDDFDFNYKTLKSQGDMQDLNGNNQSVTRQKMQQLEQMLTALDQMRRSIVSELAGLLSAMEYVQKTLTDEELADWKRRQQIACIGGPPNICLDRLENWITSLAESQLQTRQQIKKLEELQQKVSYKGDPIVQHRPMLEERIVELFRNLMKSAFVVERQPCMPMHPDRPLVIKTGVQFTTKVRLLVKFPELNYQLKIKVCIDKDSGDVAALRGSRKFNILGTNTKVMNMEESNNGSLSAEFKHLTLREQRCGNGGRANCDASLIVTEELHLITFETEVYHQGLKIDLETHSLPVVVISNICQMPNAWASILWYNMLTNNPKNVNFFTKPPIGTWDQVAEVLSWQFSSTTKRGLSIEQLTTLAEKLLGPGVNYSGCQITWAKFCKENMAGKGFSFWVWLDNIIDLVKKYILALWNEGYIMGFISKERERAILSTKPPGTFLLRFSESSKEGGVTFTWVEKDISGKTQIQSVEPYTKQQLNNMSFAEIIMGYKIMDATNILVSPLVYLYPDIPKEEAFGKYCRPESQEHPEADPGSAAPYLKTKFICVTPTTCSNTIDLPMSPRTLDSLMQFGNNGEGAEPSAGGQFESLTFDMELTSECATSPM

## CC(/C=C/C(=O)NO)=C\[C@@H](C)C(=O)c1ccc(N(C)C)cc1 [TSA, Trichostatin A, reference compound]
[1]; TSA 250 nM, TEL-transfected 4HT-stimulated Stat3ERA375 cells
  effect on repression of Stat3 activity by TEL: prevented the repression of Stat3 activity by TEL
[1]; TSA 250 nM, pcDNA3.1-transfected cells, 4HT
  effect on Stat3 mediated transcriptional activity: had no effects

## C/EBPdelta siRNA: siRNA duplex nt 844-864, SEQ ID NO:2 and SEQ ID NO:3 (chain 1 GCAGCUGCCCAGCCCGCCCTT; chain 2 GGGCGGGCUGGGCAGCUGTT; combined DNA/RNA strands, DNA positions not given here, further chemistry not given here)
[2]; about 40-45% with control siRNA
  inhibition of cell proliferation in the presence of siRNA: about 25%
[2]; average of three independent experiments, versus control siRNA
  reduction of the inhibition of A375 cell proliferation: about 40%
C/EBPdelta mRNA
  C/EBPdelta expression in the presence of siRNA: significantly reduced expression

## TEL siRNA: siRNA nt 540-560, SEQ ID NO:4 and SEQ ID NO:5 (chain 1 CCCUCCCACCAUUGAACUGTT; chain 2 CAGUUCAAUGGUGGGAGGGTT; combined DNA/RNA strands, DNA positions not given here, further chemistry not given here)
[2]; 4HT and OSM treated Stat3ER A375 cells
  anti-proliferative effects of Stat3 versus control LacZ siRNA treated cultures: stronger
[2]; about 28% without TEL siRNA
  Stat3-mediated inhibition of A375 cell proliferation in the presence of TEL siRNA: about 40%
TEL [3]
  TEL expression in the presence of TEL siRNA: largely prevented; also recorded: strongly decreased
[4]; induced by 4HT
  Stat3-dependent transcription of luciferase, increase over control: ~16 fold
[4]; induced by OSM
  Stat3-dependent transcription of luciferase, increase over control: ~18 fold

## TEL/Etv6 (ets variant gene 6; TEL oncogene) (from UniProt P41212 1-452)
[5]
  Stat3 activity (APRE luciferase reporter) in response to OSM on overexpression of TEL: > 70 % reduction

## TEL: ets variant gene 6 (TEL oncogene) product, overexpressed by transfection
[1]; in response to OSM, Stat3ER A375 cells and HEK293 cells
  reduction in Stat3 activity by overexpression of TEL: > 70%
Stat3
  interaction with Stat3: still interact with Stat3

## interleukin 6 [IL-6]
TEL [6]; PC3, LNCaP prostate cancer cells and MDA-MB-468 breast cancer cells
  TEL expression: unchanged
TEL [6]; T47D and SKBr-3 breast cancer cells, DU145 prostate carcinoma cells, HepG2 hepatoma-derived cells
  TEL expression: significantly increased
[4]; Stat3-ER-expressing A375 cells
  cooperative effect with 4HT on luciferase activity: same cooperative effect with 4HT

B1: TEL delta 442-452: TEL deletion mutant (protein)
chain: MSETPAQCSIKQERISYTPPESPVPSYASSTPLHVPVPRALRMEEDSIRLPAHLRLQPIYWSRDDVAQWLKWAENEFSLRPIDSNTFEMNGKALLLLTKEDFRYRSPHSGDVLYELLQHILKQRKPRILFSPFFHPGNSIHTQPEVILHQNHEEDNCVQRTPRPSVDNVHHNPPTIELLHRSRSPITTNHRPSPDPEQRPLRSPLDNMIRRLSPAERAQGPRPHQENNHQESYPLSVSPMENNHCPASSESHPKPSSPRQESTRVIQLMPSPIMHPLILNPRHSVDFKQSRLSEDGLHREGKPINLSHREDLAYMNHIMVSVSPPEEHAMPIGRIADCRLLWDYVYQLLSDSRYENFIRWEDKESKIFRIVDPNGLARLWGNHKNRTNMTYEKMSRALRHYYKLNIIRKEPGQRLLFRFMKTPDEIMSGRTDRLEHLESQE
[1]; Stat3-ER-A375 cells and HEK 293 cells, 24 h
  repression of 4HT- or OSM-induced Stat3 transcriptional activity: is not able to repress Stat3 activity
